Data set [1] can be described thus: Compartmental plasma PK model. In kind it is in vivo. The source says:
This model, shown schematically in Figure 9, is based on total (free + bound) plasma concentrations; the major metabolites (M14, M13, and M18) are explicit and clearance of SN30000 occurs only by reduction to M14. The i.p. bioavailability of SN30000 was modeled with an additional term for loss from the peritoneal compartment (kloss).

Data set [2] relates to NIH-III mice. Nature of the data set: Core body (rectal) temperature and acute clinical signs after dosing. The format is in vivo. On the procedure: Supplementary Figure 3. Initial rates of core temperature decrease in (untreated) NIH-III mice post- mortem: co mparison with initial temperature change ante- mortem following treatment with benzotriazine oxides at their MTD. Temperature was measured in rectu m and liver over 15 min. Initial rates of temperature loss (°C/min) were: post- mortem (rectum):
(rectum) 0.33. The rectal temperature loss following dosing with M14 (135 mg/kg) was 0.6 °C/min (not shown for clarity). The drug-induced changes are redrawn from Fig. 4.

Data set [3] can be described thus: in vivo. The following applies: NIH-III, mouse, in vivo, ip.
Protocol: SN30000, M14 and M18 dosing solutions were prepared fresh in normal saline, filtered through 0.45 μm Acrodisc filters (Pall Life Sciences, Port Washington, NY, United States), protected from light in amber vials, and used within 3 h. Doses are expressed as mg of free base equivalent for SN30000 and M14, and free acid in the case of M18. […] For evaluation of acute toxicity, mice were observed continuously for 3 h after dosing, and their activity rated on a lethargy score from 0 representing no change in activity to 5 representing animals that were moribund and required culling. For MTD studies, the animals were checked daily for clinical signs of toxicity and body weight change for 2 weeks. In some studies rectal temperature changes after dosing were measured using a BAT-12 digital microprobe thermometer (Physitemp Instruments, Clifton, NJ, United States) at the times specified in the figures. Blood samples were collected from mice at various times by cardiac puncture, seconds after cervical dislocation, into ice-cold tubes containing K2EDTA. These were placed on ice immediately after collection and centrifuged (3,000 g, 3 min) within 10 min to harvest plasma. Plasma and tissues were rapidly frozen in liquid nitrogen before storage at -80°C for subsequent bioanalysis.
Concentration-time data were analyzed by non-compartmental analysis using Phoenix WinNonlin (ver 6.4, Build 6.4.0768 Pharsight, United States); all AUC values were extrapolated to infinity using the linear trapezoidal rule. A compartmental model for plasma PK after dosing with SN30000 or M14 was fitted using Phoenix NLME v1.3 with random effects on the metabolite volumes of distribution, and temperature effects based on the observed body temperature at the last measurement time. Temperature effects were added or removed until there was no significant change in the log likelihood. Model fits were further assessed by visual inspection of the residuals and predicted PK.

Usually AUC stands for the area under the concentration-time curve, a measure of exposure. The low end stands for less exposure, the high end for more exposure. A word on the Cmax: it is the maximum level reached in the sampled fluid or tissue. As usually defined, the half-life is how long it takes for the measured level to halve. With `O=C(O)CCc1nc2cc3c(cc2[n+]([O-])n1)CCC3` [M18], the “Central compartment volume V1” value in data set [1] (1-Oxide and Nor-oxide values fixed) is 0.43 L/kg. Besides, the clearance in data set [1] (NIH-III, mouse, in vivo, model clearance of the compound, read-out: CL (converted)) was 0.23 L/h/kg. The Body weight loss result in data set [2] (36 mg/kg) is “no body weight loss was observed”. The “Acute clinical signs and hypothermic response” value in data set [2] (36 mg/kg i.p. or i.v.) is recorded as “no acute clinical signs or hypothermic response were observed”. For the same compound, the area under the curve (AUC) was 1.06 µM·h in data set [3] (1.86 mg/kg); 10.8 µM·h in data set [3] (18.6 mg/kg); 51.5 µM·h in data set [3] (78.3 mg/kg); 116 µM·h in data set [3] (92.8 mg/kg); 204 µM·h in data set [3] (186 mg/kg). In addition, the Cmax in data set [3] (1.86 mg/kg) came out at 0.65 µM; in data set [3] (18.6 mg/kg), 5.44 µM; in data set [3] (78.3 mg/kg), 23.4 µM; in data set [3] (92.8 mg/kg), 52.8 µM; in data set [3] (186 mg/kg) it was 79.5 µM. Further, the half-life in data set [3] (1.86 mg/kg) came to 1.7 h; in data set [3] (18.6 mg/kg), 3.67 h; in data set [3] (78.3 mg/kg) it was 0.592 h; in data set [3] (92.8 mg/kg), 2.42 h; in data set [3] (186 mg/kg), 20.2 h.

The record behind these values is article PMC5554537 (Frontiers in Pharmacology, 2017).
